In US4510130A, “Promoting animal and plant growth with leupeptin” (Genetic Diagnostics Corporation, priority 1983, dated 1985):

Columns and labels:
pea seedlings = test: Pea seedling growth (height) with leupeptin in watering; format: in vivo; settings: 10 mg leupeptin in 5 ml water per plant per day to the soil
Procedure: 20 pea seedlings 4 days after planting of seed and each containing an average of 5 leaves were divided into two matched groups. 5 ml of water per plant per day was supplied to the soil in which the control group was growing. The test group received the same 5 ml of water but 10 mg of leupeptin was dissolved therein. The lighting and other growth conditions were the same and the plant heights were measured daily. The first measurement was made on the day that the leupeptin-treated plants reached a height of about 1 cm, a practical minimum measuring height.

Syrian hamsters = test: Hamster growth (body weight) with daily leupeptin injection; format: in vivo; settings: for Hamster Weight: daily injection 0.8 mg leupeptin in 1 ml saline (about 20 mg/Kg per day)
Procedure: 20 Syrian hamsters 3 weeks old and initially weighing an average of 40 grams each were subdivided into two groups. The groups were fed similarly. All animals received a daily injection of 1 ml of isotonic saline solution except that the saline solution administered to the test group had 0.8 mg of leupeptin dissolved therein, corresponding to about 20 mg/Kg per day based on the initial weight of the animals. The animals were weighed weekly and the results obtained were as follows: […]

## CC(=O)N[C@@H](CC(C)C)C(=O)N[C@@H](CC(C)C)C(=O)N[C@H](C=O)CCCNC(=N)N [Leupeptin, leupeptin]
Pea seedlings; Day 0
  Pea seedling height: 1 ± 0.2 cm
Pea seedlings; Day 1
  Pea seedling height: 1.5 ± 0.1 cm
Pea seedlings; Day 4
  Pea seedling height: 3.4 ± 0.2 cm
Pea seedlings; Day 6
  Pea seedling height: 5.2 ± 0.5 cm
Pea seedlings; Day 10
  Pea seedling height: 7.9 ± 0.5 cm
Pea seedlings; Day 12
  Pea seedling height: 9.2 ± 0.6 cm
Pea seedlings; Day 15
  Pea seedling height: 12.1 ± 0.8 cm
Syrian hamsters; Weeks 3
  Hamster Weight: 47 ± 3 grams
Syrian hamsters; Weeks 6
  Hamster Weight: 75 ± 5 grams
Syrian hamsters; Weeks 9
  Hamster Weight: 87 ± 6 grams
Syrian hamsters; Weeks 12
  Hamster Weight: 95 ± 9 grams
Syrian hamsters; Weeks 15
  Hamster Weight: 105 ± 8 grams
Syrian hamsters; Weeks 18
  Hamster Weight: 110 ± 8 grams
Syrian hamsters; Weeks 21
  Hamster Weight: 115 ± 7 grams
Syrian hamsters; Weeks 27
  Hamster Weight: 122 ± 10 grams
Syrian hamsters; Weeks 32
  Hamster Weight: 130 ± 9 grams
Syrian hamsters; at all stages of development, about 20 mg/Kg per day by injection
  Increase of hamster weight versus control: 10-15%
Syrian hamsters; muscles isolated from the treated hamsters
  Muscle mass of isolated muscles: increased weight was attributable to a corresponding muscle mass increase
